According to patent US4784958A, “1,4-dihydropyridine derivatives and 1,4-dihydroquinoline derivatives radioactively labelled with ^125 I, their preparation, and their use in testing medicaments” (priority 1983, dated 1988):
Read-outs that look alike come from different tables or passages of the source.

Columns and labels:
[1] = biological target: T1, guinea-pig skeletal muscle membranes (1,4-dihydropyridine receptors / calcium channel) (Cavia porcellus, UniProt A0A286X7I0); experiment: Competition radioreceptor assay with the ^125 I-labelled 1,4-dihydropyridine of Example 2; assay type: binding
T1 construct: membrane fractions from guinea-pig brain, cardiac muscle and skeletal muscle; from tissue; host or cells: guinea-pig skeletal muscle membranes
Description: In order to separate the free ligand from the bound ligand, 10% (w/v) polyethylene glycol 6000 was added to ice-cold 10 mM TRIS HCl buffer, pH 7.4, followed by 20 mM MgCl2 (3.5 ml), the sample was diluted, suction filtered in vacuo over a glass fibre filter, and the glass fibre filter was rewashed twice with 3.5 ml of the same buffer. The particle-bound radioactivity retained on the filters was then measured.
The data in Table 1 are mean values (±asymptotic standard deviation) from 3 independent experiments in which various calcium antagonists and derivatives or precursors of calcium antagonists were used as competitors with the ^125 I-labelled 1,4-dihydropyridine ("ligand") obtained in Example 2. Guinea-pig skeletal muscle membranes were used as receptor material. The concentration of the labelled ligand was 20-30 pmole/l and the experimental temperature was 25° C. 6 to 9 different concentrations of the checked substances were used (in each case as duplicate) and the measured binding data were optimally adapted by means of a computer program (DeLean A., Munson P. J., Rodbard D. (1978). Simultaneous analysis of families of sigmoid curves: application to bioassay, radioligand assay and physiological dose-response curves. Am J. Physiol. 4 E97-102). The stereospecifity of the binding for chiral 1,4-dihydropyridines was investigated as an important criterion for the receptor binding of the ^125 I-labelled 1,4-dihydropyridine in group 1. […] The EC50 value is the concentration of the substance stimulating a semi-maximum specific binding of the ligand.

[2] = biological target: T2, skeletal muscle membranes (1,4-dihydropyridine receptors) (Cavia porcellus, UniProt A0A286X7I0); experiment: Saturation analysis, binding of ^125 I-labelled 1,4-dihydropyridine to skeletal muscle membranes; design: species or system guinea-pig; conditions: 25° C.
T2 construct: membrane fractions from guinea-pig brain, cardiac muscle and skeletal muscle; from tissue; host or cells: guinea-pig skeletal muscle membranes
Description: (§1) Aliquots of the obtained and ^125 I-labelled 1,4-dihydropyridine are dried in a stream of nitrogen, incubated with buffer (50 mM TRIS-HCl, pH 7.4, to which the protease inhibitor phenylmethylsulphonyl fluoride has been added (0.1 mmole/l)) and membrane fractions from guinea-pig brain, cardiac muscle and skeletal muscle (prepared as described in Drug Development 9: 63-98 (1983); Naunyn-Schmiedeberg's Arch. Pharmacol. 321: 80-83 (1983) and FEBS Lett 148: 331-337 (1982)) at 25° C. in 0.1 ml volume until equilibrium is reached, and the specific binding (defined as the difference in the binding of the ^125 I-labelled 1,4-dihydropyridine in the absence and presence of 1 μmole/l of Nimodipin) is measured by means of the filtration technique (to separate bound and free ^125 I-labelled 1,4-dihydropyridine). […] The particle-bound radioactivity retained on the filters was then measured.
(§2) The following formula was used to calculate the concentration of the free ligand: (T. a)-B, where T is the total concentration of the ligand, a is a factor describing the binding capacity of the ligand, and B is the concentration of the specifically bound ligand in equilibrium. The factor a was determined experimentally by saturating the radioactive ligand with binding sites (receptors) (described in FEBS Lett. 148, 331-337, 1982; Naunyn Schmiedeberg's Arch. Pharmacol 321, 7-10, 1982). […]

[3] = Stability of the ^125 I-labelled 1,4-dihydropyridine (HPLC, thin layer chromatography); assay type: physicochemical
Description: The following formula was used to calculate the concentration of the free ligand: (T. a)-B, where T is the total concentration of the ligand, a is a factor describing the binding capacity of the ligand, and B is the concentration of the specifically bound ligand in equilibrium. The factor a was determined experimentally by saturating the radioactive ligand with binding sites (receptors) (described in FEBS Lett. 148, 331-337, 1982; Naunyn Schmiedeberg's Arch. Pharmacol 321, 7-10, 1982). The factor "a" was 0.5 for the asymmetric 1,4-dihydropyridine derivative, in agreement with the theoretically required capacity of the receptor (R) and (S) to differentiate enantiomers of the ^125 I-labelled 1,4-dihydropyridine (stereospecifity of the binding). The ^125 I-labelled 1,4-dihydropyridine is the racemic mixture of (R) and (S) enantiomers. A dissociation constant of 350 pmole/l (25° C.) was found for muscle membranes (not illustrated). The stability of the ^125 I-labelled 1,4-dihydropyridine was checked under the following conditions by conventional methods (HPLC, thin layeer chromatography): buffer 50 mM TRIS HCl, pH 7.4, 25° C., 4 hours; muscle membrane in buffer, 25° C., 4 hours; as well as storage in benzene or absolute ethanol at -20° C. for up to 21 days after preparation of the ligand. In no case were the radiochemical impurities greater than 10%.

[4] = biological target: T3, 1,4-dihydropyridine receptors in guinea-pig brain membranes (Cavia porcellus, UniProt O35505); experiment: Saturation analysis, binding of ^125 I-labelled 1,4-dihydropyridine to brain membranes; conditions: 25° C., read-out: dissociation constant (conclusion)
T3 construct: 1,4-dihydropyridine receptors in guinea-pig brain membranes; from tissue; host or cells: guinea-pig brain membranes
Description: as §1, §2

[5] = read-out: IC50 (50% inhibition of the specific binding of the ligand in the radioreceptor assay), guinea-pig skeletal muscle membranes, ligand 20-30 pmole/l, 25° C., mean ± asymptotic standard deviation, 3 independent experiments
[6] = guinea-pig skeletal muscle membranes, ligand 20-30 pmole/l, 25° C., mean ± asymptotic standard deviation, 3 independent experiments

T1 sequence (A0A286X7I0 1-1867): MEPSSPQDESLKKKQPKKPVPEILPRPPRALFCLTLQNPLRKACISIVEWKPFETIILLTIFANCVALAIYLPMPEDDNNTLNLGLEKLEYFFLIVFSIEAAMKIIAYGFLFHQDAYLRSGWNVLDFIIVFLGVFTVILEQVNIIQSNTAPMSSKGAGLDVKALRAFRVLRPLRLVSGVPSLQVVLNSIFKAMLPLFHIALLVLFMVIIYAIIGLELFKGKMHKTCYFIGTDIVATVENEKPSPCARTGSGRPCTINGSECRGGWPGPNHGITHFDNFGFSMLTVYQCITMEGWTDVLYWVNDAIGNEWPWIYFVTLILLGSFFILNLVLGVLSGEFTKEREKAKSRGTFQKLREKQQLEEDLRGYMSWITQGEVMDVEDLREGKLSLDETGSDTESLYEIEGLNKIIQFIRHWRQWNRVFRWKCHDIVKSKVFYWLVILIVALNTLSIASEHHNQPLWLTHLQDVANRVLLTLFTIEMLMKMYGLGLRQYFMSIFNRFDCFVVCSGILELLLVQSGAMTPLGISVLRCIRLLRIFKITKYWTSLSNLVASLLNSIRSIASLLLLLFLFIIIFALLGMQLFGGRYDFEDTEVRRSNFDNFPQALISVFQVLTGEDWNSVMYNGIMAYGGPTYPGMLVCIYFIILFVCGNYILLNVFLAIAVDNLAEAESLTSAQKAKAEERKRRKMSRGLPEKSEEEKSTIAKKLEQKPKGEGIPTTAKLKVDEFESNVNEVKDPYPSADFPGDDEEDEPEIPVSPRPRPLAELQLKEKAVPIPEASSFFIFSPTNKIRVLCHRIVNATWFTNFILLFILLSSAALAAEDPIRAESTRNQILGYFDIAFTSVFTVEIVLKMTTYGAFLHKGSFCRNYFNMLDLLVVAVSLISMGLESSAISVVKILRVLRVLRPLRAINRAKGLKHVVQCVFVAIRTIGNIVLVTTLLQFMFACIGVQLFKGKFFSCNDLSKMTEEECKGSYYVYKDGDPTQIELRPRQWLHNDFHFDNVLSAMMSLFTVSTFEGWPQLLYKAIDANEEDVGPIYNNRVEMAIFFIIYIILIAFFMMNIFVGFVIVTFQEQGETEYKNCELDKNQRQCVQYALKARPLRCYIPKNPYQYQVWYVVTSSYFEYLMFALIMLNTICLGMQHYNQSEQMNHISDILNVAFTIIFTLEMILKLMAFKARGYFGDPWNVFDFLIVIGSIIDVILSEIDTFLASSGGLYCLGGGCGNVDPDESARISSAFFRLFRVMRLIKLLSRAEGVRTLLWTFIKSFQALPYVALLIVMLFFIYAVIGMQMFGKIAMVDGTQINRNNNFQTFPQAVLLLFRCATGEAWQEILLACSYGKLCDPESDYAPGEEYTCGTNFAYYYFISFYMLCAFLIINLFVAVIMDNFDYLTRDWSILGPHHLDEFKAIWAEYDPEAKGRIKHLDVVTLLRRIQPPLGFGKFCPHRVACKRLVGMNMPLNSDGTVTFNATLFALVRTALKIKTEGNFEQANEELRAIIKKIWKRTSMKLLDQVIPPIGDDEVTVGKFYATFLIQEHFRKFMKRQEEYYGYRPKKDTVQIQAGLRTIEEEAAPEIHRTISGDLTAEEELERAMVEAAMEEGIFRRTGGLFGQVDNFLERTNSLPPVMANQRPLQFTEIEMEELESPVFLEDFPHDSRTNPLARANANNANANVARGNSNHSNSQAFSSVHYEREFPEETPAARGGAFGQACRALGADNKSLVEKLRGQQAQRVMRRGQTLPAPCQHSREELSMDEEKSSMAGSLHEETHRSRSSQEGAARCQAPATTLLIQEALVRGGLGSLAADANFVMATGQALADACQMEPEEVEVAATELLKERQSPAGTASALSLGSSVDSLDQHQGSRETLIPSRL
T2 sequence (A0A286X7I0 1-1867): as above
T3 sequence (O35505 whole entry): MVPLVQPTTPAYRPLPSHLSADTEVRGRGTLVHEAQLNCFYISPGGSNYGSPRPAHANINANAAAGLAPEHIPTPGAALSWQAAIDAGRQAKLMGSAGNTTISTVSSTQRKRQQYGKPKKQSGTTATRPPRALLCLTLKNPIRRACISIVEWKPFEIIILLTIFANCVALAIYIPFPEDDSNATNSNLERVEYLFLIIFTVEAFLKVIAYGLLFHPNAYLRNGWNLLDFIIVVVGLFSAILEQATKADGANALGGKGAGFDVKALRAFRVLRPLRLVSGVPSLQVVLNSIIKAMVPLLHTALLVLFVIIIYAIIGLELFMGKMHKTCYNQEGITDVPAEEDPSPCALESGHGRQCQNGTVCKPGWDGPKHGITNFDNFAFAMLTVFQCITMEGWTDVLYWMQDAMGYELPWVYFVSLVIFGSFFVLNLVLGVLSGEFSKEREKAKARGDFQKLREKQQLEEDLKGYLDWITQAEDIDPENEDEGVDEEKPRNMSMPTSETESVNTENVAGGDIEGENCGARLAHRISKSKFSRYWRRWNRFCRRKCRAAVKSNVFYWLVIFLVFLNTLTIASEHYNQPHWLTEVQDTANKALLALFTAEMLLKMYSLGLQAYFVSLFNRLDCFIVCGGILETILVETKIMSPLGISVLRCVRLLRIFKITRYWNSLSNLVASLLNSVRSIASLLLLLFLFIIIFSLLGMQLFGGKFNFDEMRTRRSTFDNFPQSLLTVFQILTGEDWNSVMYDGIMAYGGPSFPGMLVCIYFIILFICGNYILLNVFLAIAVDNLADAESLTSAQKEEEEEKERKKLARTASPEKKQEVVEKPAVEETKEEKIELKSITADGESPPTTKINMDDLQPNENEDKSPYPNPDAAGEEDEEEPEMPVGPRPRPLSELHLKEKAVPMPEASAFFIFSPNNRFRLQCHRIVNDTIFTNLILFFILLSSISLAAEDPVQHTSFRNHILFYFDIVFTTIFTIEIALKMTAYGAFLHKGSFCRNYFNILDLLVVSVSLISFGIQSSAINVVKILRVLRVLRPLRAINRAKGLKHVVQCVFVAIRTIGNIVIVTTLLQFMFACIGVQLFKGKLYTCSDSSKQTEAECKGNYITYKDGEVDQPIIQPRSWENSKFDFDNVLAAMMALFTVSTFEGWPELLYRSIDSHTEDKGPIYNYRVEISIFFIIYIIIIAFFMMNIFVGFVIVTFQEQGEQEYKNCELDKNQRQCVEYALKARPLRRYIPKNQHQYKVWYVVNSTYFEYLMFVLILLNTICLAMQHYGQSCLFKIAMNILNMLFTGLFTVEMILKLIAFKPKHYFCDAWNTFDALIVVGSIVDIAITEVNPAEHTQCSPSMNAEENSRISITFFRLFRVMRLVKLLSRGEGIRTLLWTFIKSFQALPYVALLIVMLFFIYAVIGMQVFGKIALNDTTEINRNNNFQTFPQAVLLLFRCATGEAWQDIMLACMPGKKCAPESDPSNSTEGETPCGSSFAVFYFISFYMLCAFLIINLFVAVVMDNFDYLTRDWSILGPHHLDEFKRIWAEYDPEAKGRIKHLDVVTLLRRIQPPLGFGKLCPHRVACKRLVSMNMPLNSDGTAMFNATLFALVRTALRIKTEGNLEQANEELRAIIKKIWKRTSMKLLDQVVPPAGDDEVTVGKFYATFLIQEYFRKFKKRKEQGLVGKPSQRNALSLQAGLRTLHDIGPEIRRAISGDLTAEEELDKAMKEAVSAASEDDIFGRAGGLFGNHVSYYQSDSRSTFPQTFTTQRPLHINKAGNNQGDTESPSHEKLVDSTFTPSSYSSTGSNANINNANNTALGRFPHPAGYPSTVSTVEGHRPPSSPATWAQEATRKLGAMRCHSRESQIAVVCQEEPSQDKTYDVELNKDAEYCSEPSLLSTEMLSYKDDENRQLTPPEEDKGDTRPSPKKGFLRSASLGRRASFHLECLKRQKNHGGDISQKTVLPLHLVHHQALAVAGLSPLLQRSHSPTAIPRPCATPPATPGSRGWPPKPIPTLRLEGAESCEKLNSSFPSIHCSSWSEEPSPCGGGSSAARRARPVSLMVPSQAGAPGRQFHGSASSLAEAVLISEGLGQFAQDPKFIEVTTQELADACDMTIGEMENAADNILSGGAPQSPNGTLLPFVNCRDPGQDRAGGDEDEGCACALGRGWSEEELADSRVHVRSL

Row | Compound | IC50 [1, 6] | other results
1 | 1,4-dihydro-2,6-dimethyl-4-(2-trifluoromethylphenyl)-3,5-pyridinecarboxylic acid 2-(aminoethyl)ethyl ester [Bay K 8644] | – | IC50 [1, 5]: 0.037 ± 0.005 µM
2 | COC(=O)C1=C(C)NC(C)=C(C(=O)OC(C)C)C1c1cccc2nonc12 (single isomer, unassigned; (+)) [(+)205-033, isopropyl 4-(2,1,3-benzoxadiazole-4-yl)-1,4-dihydro-2,6-dimethyl-5-methoxycarbonylpyridine-3-carboxylate] | 0.002 ± 5e-05 µM | –
3 | COC(=O)C1=C(C)NC(C)=C(C(=O)OC(C)C)C1c1cccc([N+](=O)[O-])c1 (single isomer, unassigned; (+)) [(+)Bay e 6927, isopropylmethyl 1,4-dihydro-2,6-dimethyl-4-(3-nitrophenyl)-3,5-pyridinedicarboxylate] | 0.42 ± 0.067 µM | –
4 | COc1ccc(CCN(C)CCCC(C#N)(c2cc(OC)c(OC)c(OC)c2)C(C)C)cc1OC (single isomer, unassigned; (+)) [(+)Methoxyverapamil, Methoxyverapamil] | 0.19 ± 0.05 µM | –
5 | COC(=O)C1=C(C)NC(C)=C(C(=O)OCCN(C)Cc2ccccc2)C1c1cccc([N+](=O)[O-])c1 (single isomer, unassigned; (+)) [(+)Nicardipine, 2,6-dimethyl-4-(3 nitrophenyl)-1,4-dihydropyridine-3,5-dicarboxylic acid 3-2(N-benzyl-N-methylamino)-ethylester-5-methylester] | 0.007 ± 0.0008 µM | –
6 | COC(=O)C1=C(C)NC(C)=C(C(=O)OC(C)C)C1c1cccc2nonc12 (single isomer, unassigned; (-)) [(-)205-034, isopropyl 4-(2,1,3-benzoxadiazole-4-yl)-1,4-dihydro-2,6-dimethyl-5-methoxycarbonylpyridine-3-carboxylate] | 0.198 ± 0.04 µM | –
7 | COC(=O)C1=C(C)NC(C)=C(C(=O)OC(C)C)C1c1cccc([N+](=O)[O-])c1 (single isomer, unassigned; (-)) [(-)Bay e 6927, isopropylmethyl 1,4-dihydro-2,6-dimethyl-4-(3-nitrophenyl)-3,5-pyridinedicarboxylate] | 0.003 ± 4e-05 µM | –
8 | COC(=O)C1=C(C)NC(C)=C(C(=O)OCCN(C)Cc2ccccc2)C1c1cccc([N+](=O)[O-])c1 (single isomer, unassigned; (-)) [(-)Nicardipine, 2,6-dimethyl-4-(3 nitrophenyl)-1,4-dihydropyridine-3,5-dicarboxylic acid 3-2(N-benzyl-N-methylamino)-ethylester 5-methylester] | 0.042 ± 0.003 µM | –
9 | COc1ccc(CCN(C)CCC[C@@](C#N)(c2cc(OC)c(OC)c(OC)c2)C(C)C)cc1OC [(-)Methoxyverapamil, Methoxyverapamil] | 0.021 ± 0.008 µM | –
10 | CCOC(=O)C1=C(C)NC(C)=C(C(=O)O)C1c1cccc([N+](=O)[O-])c1 (stereo not drawn) [Bay M 5579] | – | IC50 [1, 5]: 1.86 ± 0.3 µM
11 | CCOC(=O)C1=C(C)NC2=C(C(=O)OC2)C1c1ccccc1OC(F)F (stereo not drawn) [CGP 28392] | 1.25 ± 0.18 µM | –
12 | CCOC(=O)C1=C(C)NC(C)=C(C(=O)OCCNC(=O)CCc2ccc(O)c([125I])c2)C1c1ccccc1C(F)(F)F (stereo not drawn) [^125 I-labelled 1,4-dihydropyridine] | – | Kd ([2]; muscle membranes, read-out: dissociation constant (KD)): 0.00035 µM; Kd ([2]; skeletal muscle membranes, read-out: dissociation constant (conclusion)): < 0.001 µM; stability (conclusion) [3]: sufficient stability; radiochemical impurities (stability) ([3]; 50 mM TRIS HCl pH 7.4, 25° C., 4 hours, muscle membrane in buffer, 25° C., storage in benzene or absolute ethanol at -20° C. up to 21 days): ≤ 10%; Kd [4]: < 0.001 µM
13 | COc1ccc([C@@H]2Sc3ccccc3N(CCN(C)C)C(=O)[C@@H]2OC(C)=O)cc1 [d-cis-Diltiazem] | – | EC50 [1]: 0.96 ± 0.31 µM
14 | COc1ccc([C@H]2Sc3ccccc3N(CCN(C)C)C(=O)[C@H]2OC(C)=O)cc1 [l-cis-Diltiazem] | – | IC50 [1]: 3 ± 1.6 µM
